The results in this text go back to patent US8841309B2, “Substituted pyrazines and their use in the treatment of disease” (Boehringer Ingelheim International GmbH, priority 2012, dated 2014).

In the assay the target is T1, ENaC (Mus musculus, UniProt Q61180+Q9WU38+Q9WU39).
T1 construct: Mouse kidney M-1 cells were cultivated in DMEM containing 5% FCS and 5 μM dexamethasone; endogenous in cells; host or cells: mouse kidney M-1 cells
T1 sequence (Q61180 1-699): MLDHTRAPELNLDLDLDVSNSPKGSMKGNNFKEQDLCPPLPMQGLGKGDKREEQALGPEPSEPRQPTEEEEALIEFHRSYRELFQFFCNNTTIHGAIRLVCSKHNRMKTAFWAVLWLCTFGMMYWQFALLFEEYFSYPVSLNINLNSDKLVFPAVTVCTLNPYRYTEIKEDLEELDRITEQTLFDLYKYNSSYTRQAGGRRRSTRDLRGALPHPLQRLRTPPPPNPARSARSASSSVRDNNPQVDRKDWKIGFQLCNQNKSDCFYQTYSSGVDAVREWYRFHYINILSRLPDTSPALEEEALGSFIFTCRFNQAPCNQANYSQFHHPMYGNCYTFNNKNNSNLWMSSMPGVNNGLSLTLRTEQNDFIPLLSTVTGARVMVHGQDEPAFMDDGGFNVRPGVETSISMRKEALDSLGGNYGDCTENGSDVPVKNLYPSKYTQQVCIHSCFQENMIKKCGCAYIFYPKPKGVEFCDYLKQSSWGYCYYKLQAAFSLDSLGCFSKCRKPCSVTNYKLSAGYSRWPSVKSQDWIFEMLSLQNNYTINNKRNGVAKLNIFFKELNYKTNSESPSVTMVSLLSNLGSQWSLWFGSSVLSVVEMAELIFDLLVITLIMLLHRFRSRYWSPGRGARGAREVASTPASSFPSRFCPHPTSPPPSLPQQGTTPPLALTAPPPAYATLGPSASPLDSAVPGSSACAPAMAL
T1 sequence (Q9WU38 1-638): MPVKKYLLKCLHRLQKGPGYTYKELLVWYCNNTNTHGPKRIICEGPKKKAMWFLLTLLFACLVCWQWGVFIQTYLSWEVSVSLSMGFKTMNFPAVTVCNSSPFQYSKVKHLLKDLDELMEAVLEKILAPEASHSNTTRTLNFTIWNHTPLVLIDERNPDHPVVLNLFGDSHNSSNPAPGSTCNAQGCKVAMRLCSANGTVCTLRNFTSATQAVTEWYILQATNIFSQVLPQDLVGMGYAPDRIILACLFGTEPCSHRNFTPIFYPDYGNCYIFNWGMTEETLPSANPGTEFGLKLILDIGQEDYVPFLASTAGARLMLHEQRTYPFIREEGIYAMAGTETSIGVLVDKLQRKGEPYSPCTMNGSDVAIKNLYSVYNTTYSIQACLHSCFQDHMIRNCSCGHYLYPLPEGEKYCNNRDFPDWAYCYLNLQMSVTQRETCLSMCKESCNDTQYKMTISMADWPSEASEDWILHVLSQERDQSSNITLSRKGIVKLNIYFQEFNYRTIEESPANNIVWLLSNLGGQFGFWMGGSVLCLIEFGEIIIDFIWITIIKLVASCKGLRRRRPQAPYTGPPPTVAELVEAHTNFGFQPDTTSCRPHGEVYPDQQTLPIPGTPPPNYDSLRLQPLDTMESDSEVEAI
T1 sequence (Q9WU39 1-655): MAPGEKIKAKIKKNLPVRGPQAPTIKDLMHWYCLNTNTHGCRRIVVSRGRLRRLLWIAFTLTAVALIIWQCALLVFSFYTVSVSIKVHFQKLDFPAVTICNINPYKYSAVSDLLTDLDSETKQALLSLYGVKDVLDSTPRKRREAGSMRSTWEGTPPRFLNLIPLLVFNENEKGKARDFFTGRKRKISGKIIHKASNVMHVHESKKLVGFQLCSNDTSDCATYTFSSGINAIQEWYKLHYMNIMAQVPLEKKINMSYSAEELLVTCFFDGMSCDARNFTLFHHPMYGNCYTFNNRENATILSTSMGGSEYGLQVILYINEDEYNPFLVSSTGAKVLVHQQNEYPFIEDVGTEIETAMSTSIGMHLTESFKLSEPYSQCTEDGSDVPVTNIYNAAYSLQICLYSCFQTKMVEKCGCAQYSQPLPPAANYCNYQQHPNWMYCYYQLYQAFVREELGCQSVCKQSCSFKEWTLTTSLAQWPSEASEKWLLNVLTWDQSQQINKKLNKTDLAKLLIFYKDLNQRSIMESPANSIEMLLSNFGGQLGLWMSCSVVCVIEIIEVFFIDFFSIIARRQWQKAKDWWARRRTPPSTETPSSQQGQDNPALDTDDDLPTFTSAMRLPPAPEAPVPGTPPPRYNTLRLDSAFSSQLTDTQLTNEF
The experiment in a line: Ussing chamber: short circuit current (I_sc) in mouse kidney M-1 cells, amiloride-sensitive. The format is cell-based. As to conditions: compound applied to apical solution, 37° C. How it is done: Ussing Chamber: Mouse kidney M-1 cells were cultivated in DMEM containing 5% FCS and 5 μM dexamethasone for 10 to 12 days on polyester transwell filters. Filters were inserted into a teflon-coated well-plate which fit into the in-house ussing chamber system. Prior to measurement the medium of M-1 cells was replaced with Caco-2 transport buffer (Invitrogen, Germany). During measurements, the Ussing chamber temperature was kept at 37° C. Short circuit currents (I_sc) were measured in the voltage-clamp mode using an in-house built amplifier (Boehringer Ingelheim, Biberach) with the software package Lab View for data acquisition and analysis. The transepithelial electrical resistance (TEER) was determined by the application of voltage steps of ±5 mV every 5 sec. Compounds were administered at a final concentration of 3 μM or at increasing concentrations (1-3-10 μM) to the apical solution. At the end of each experiment the amiloride sensitive I_SC was measured by adding 3 μM amiloride to the apical compartment. Results are expressed as inhibition in percent of the amiloride effect or as IC50.
As for `C[N+]1(CC(=O)Nc2cccc(F)c2)CCC[C@H](NC(N)=NC(=O)c2nc(Cl)c(N)nc2N)C1` (mixture of isomers) [Example 70.4], the IC50 (in general, the midpoint of a concentration-inhibition curve) came to 31 nM.

`C[N+]1(CC(=O)NCc2ccc(Cl)cc2)CCC[C@@H](N/C(N)=N/C(=O)c2nc(Cl)c(N)nc2N)C1` (mixture of isomers) [Example 70.5] returned an IC50 of 45 nM.

The compound `CCNC(=O)C[N+]1(C)CCC[C@H](N/C(N)=N/C(=O)c2nc(Cl)c(N)nc2N)C1` (mixture of isomers) [Example 70.6] showed an IC50 of 46 nM.

As for `C[N+]1(CC(=O)NCc2ccc(Cl)cc2)CCC[C@H](N/C(N)=N/C(=O)c2nc(Cl)c(N)nc2N)C1` (mixture of isomers) [Example 71.1], the IC50 was found to be 30.6 nM.

As to `C[N+]1(Cc2ccccc2)CCC[C@H](N/C(N)=N/C(=O)c2nc(Cl)c(N)nc2N)C1` (stereo in doubt) [Example 71, (S)-1-Benzyl-3-[N′-(3,5-diamino-6-chloro-pyrazine-2-carbonyl)-guanidino]-1-methyl-piperidinium chloride], half-maximal inhibition (IC50) was put at 81 nM.

The compound `COC(=O)c1cccc(C[N+]2(C)CCC[C@H](N/C(N)=N/C(=O)c3nc(Cl)c(N)nc3N)C2)c1` (stereo in doubt) [Example 72, (S)-3-[N′-(3,5-Diamino-6-chloro-pyrazine-2-carbonyl)-guanidino]-1-(3-methoxycarbonyl-benzyl)-1-methyl-piperidinium chloride] registered an IC50 of 122 nM. This IC50 lies about 1.5-fold higher than the previous one.

In the case of `N/C(=N\C(=O)c1nc(Cl)c(N)nc1N)NC1C[N+]2(CC(=O)O)CCC1CC2` (centres unmarked) [Example 1, 1-Carboxymethyl-3-[N′-(3,5-diamino-6-chloro-pyrazine-2-carbonyl)-guanidino]-1-azoniabicyclo[2.2.2]octane bromide], the 50% inhibitory concentration (IC50) came out at 468 nM.

In turn, `COc1cc(C[N+]23CCC(CC2)C(N/C(N)=N/C(=O)c2nc(Cl)c(N)nc2N)C3)cc(OC)c1OC` (centres unmarked) [Example 2, 3-[N′-(3,5-Diamino-6-chloro-pyrazine-2-carbonyl)-guanidino]-1-(3,4,5-trimethoxybenzyl)-1-azoniabicyclo[2.2.2]octane chloride] displayed an IC50 of 126 nM.

As to `N/C(=N\C(=O)c1nc(Cl)c(N)nc1N)NC1C[N+]2(CC(=O)Nc3ccccc3)CCC1CC2` (centres unmarked) [Example 3, 3-[N′-(3,5-Diamino-6-chloro-pyrazine-2-carbonyl)-guanidino]-1-phenylcarbamoylmethyl-1-azoniabicyclo[2.2.2]octane chloride], the IC50 came to 26 nM. Compared with the last compound, the IC50 is about 4.8-fold lower.

On to `N/C(=N\C(=O)c1nc(Cl)c(N)nc1N)NC1C[N+]2(Cc3ccccc3)CCC1CC2` (centres unmarked) [Example 4, 1-Benzyl-3-[N′-(3,5-diamino-6-chloro-pyrazine-2-carbonyl)-guanidino]-1-azoniabicyclo[2.2.2]octane bromide], for which the IC50 was 43 nM. This IC50 is about 1.7-fold higher than that of the compound before.

The compound `N/C(=N\C(=O)c1nc(Cl)c(N)nc1N)N[C@H]1C[N+]2(Cc3ccccc3)CCC1CC2` [Example 5, (R)-1-Benzyl-3-[N′-(3,5-diamino-6-chloro-pyrazine-2-carbonyl)-guanidino]-1-azoniabicyclo[2.2.2]octane bromide] had a half-maximal inhibitory concentration (IC50) of 460 nM.

In the case of `N/C(=N\C(=O)c1nc(Cl)c(N)nc1N)N[C@@H]1C[N+]2(Cc3ccccc3)CCC1CC2` [Example 6, (S)-1-Benzyl-3-[N′-(3,5-diamino-6-chloro-pyrazine-2-carbonyl)-guanidino]-1-azoniabicyclo[2.2.2]octane bromide], 28 nM corresponded to half-maximal inhibition (IC50).

`N/C(=N\C(=O)c1nc(Br)c(N)nc1N)N[C@@H]1C[N+]2(Cc3ccccc3)CCC1CC2` [Example 6.1, (S)-1-Benzyl-3-[N′-(3,5-diamino-6-bromo-pyrazine-2-carbonyl)-guanidino]-1-azoniabicyclo[2.2.2]octane bromide] displayed an IC50 of 29 nM.

As to `COc1ccc(C[N+]23CCC(CC2)[C@H](N/C(N)=N/C(=O)c2nc(Cl)c(N)nc2N)C3)cc1` [Example 7, (S)-3-[N′(3,5-Diamino-6-chloro-pyrazine-2-carbonyl)-guanidino]-1-(4-methoxybenzyl)-1-azoniabicyclo[2.2.2]octane chloride], the IC50 was determined as 20 nM.

With `CC(C)(C)c1ccc(C[N+]23CCC(CC2)[C@H](N/C(N)=N/C(=O)c2nc(Cl)c(N)nc2N)C3)cc1` [Example 8, (S)-1-(4-tert-Butyl-benzyl)-3-[N′-(3,5-diamino-6-chloro-pyrazine-2-carbonyl)-guanidino]-1-azoniabicyclo[2.2.2]octane chloride], the midpoint of inhibition, the IC50, lay at 41 nM. This IC50 is about 2-fold higher than that of the compound before.

`NC(=NC(=O)c1nc(Cl)c(N)nc1N)N[C@@H]1C[N+]2(Cc3cccc(SC(F)(F)F)c3)CCC1CC2` [Example 9] registered an IC50 of 3 nM.

In the case of `NC(=NC(=O)c1nc(Cl)c(N)nc1N)N[C@@H]1C[N+]2(Cc3ccccc3SC(F)(F)F)CCC1CC2` [Example 10], the IC50 was determined as 60 nM.

In the case of `N/C(=N\C(=O)c1nc(Cl)c(N)nc1N)N[C@@H]1C[N+]2(Cc3ccc4ccccc4n3)CCC1CC2` [Example 11, (S)-3-[N′-(3,5-Diamino-6-chloro-pyrazine-2-carbonyl)-guanidino]-1-quinolin-2-ylmethyl-1-azoniabicyclo[2.2.2]octane chloride], the IC50 came to 29 nM.

In turn, `N/C(=N\C(=O)c1nc(Cl)c(N)nc1N)N[C@@H]1C[N+]2(Cc3ccc(C(F)(F)F)nc3)CCC1CC2` [Example 12, (S)-3-[N′-(3,5-Diamino-6-chloro-pyrazine-2-carbonyl)-guanidino]-1-(6-trifluoromethyl-pyridin-3-ylmethyl)-1-azonia-bicyclo[2.2.2]octane chloride] gave an IC50 of 63 nM.

The compound `N/C(=N\C(=O)c1nc(Cl)c(N)nc1N)N[C@@H]1C[N+]2(Cc3ccccn3)CCC1CC2` [Example 13, (S)-3-[N′-(3,5-Diamino-6-chloro-pyrazine-2-carbonyl)-guanidino]-1-pyridin-2-ylmethyl-1-azoniabicyclo[2.2.2]octane chloride] came in with an IC50 of 90 nM.

Take `N/C(=N\C(=O)c1nc(Cl)c(N)nc1N)N[C@@H]1C[N+]2(Cc3ccc(F)cc3)CCC1CC2` [Example 14, (S)-3-[N′-(3,5-Diamino-6-chloro-pyrazine-2-carbonyl)-guanidino]-1-(4-fluoro-benzyl)-1-azoniabicyclo[2.2.2]octane chloride]: the IC50 amounted to 28 nM. Compared with the last compound, the IC50 is about 3.2-fold lower.

With `NC(=NC(=O)c1nc(Cl)c(N)nc1N)N[C@@H]1C[N+]2(Cc3ccc(Cl)cc3)CCC1CC2` [Example 15], the IC50 worked out at 18 nM.

As for `COc1cccc(C[N+]23CCC(CC2)[C@H](NC(N)=NC(=O)c2nc(Cl)c(N)nc2N)C3)c1` [Example 16], half-maximal inhibition (IC50) required 14 nM.
